# Values of other authors as cited in article PMC8637765 (RSC Chemical Biology, 2021).
# Test system: cancer cells
row,Compound,Growth inhibition at the cellular level
1,"O=C(Cc1ccccc1)Nc1nnc(CCSCCc2nnc(NC(=O)Cc3ccccc3)s2)s1 [BPTES, bis-2-(5-phenylacetamido-1,3,4-thiadiazol-2-yl)ethyl sulfide]",partial growth inhibition
2,O=C(Cc1cccc(OC(F)(F)F)c1)Nc1ccc(CCCCc2nnc(NC(=O)Cc3ccccn3)s2)nn1 [CB-839],partial growth inhibition
